This is an account of results in publication PMC9864514, “Evaluation of the Local Anesthetic Activity, Acute Toxicity, and Structure–Toxicity Relationship in Series of Synthesized 1-Aryltetrahydroisoquinoline Alkaloid Derivatives In Vivo and In Silico” (Molecules, 2023).

As usually defined, the LD50 is the dose at which mortality reaches 50%. Low values mean a more toxic substance, high ones a less toxic substance.

Entries after “also recorded” stand apart in the source; their conditions may differ.

What all share (type): in vivo
In data set [1] the test system is rabbit eye cornea. The data set can be described thus: Local anesthetic activity, rabbit eye cornea terminal anesthesia test. The protocol: Local anesthetic activity was evaluated using the rabbit eye cornea terminal anesthesia test on 2.0–2.5 kg male chinchilla rabbits after introduction of total 0.4 mL (0.2 mL twice with an interval of 30 s) of 1.0 % solutions of the studied substances. Lidocaine was used as an etalon drug. Each substance was tested on three rabbits.

A short description of data set [2]: Acute toxicity and resorptive action in white mice, intragastric administration. The note with it: mouse, in vivo, po, intragastric administration, N = 10, Litchfield–Wilcoxon. Here is the method:
(§1) The acute toxicity and resorptive action were determined in white mice weighing 20–24 g by gradual oral administration at doses of 1–5000 mg/kg.
(§2) The animals were kept under standard nursery conditions with a natural 12-h light-dark cycle, at an air temperature of 20 ± 2 °C. The animals had unlimited access to food and water. The experiments were performed in accordance with the International Convention for the Protection of Vertebrate Animals used for Experimental and Scientific Purposes (Strasbourg, 1986). Each substance was tested on 10 mice and LD50 was determined graphically by the well-known Litchfield–Wilcoxon method.

Data set [3] relates to white mice. Described as above. The note with it: intragastric, relative to parent compound 3a. The protocol: as §1, §2
Setting [4] is: rabbit corneal model, 1% aqueous solution.

On to `COc1cc2c(cc1OC)C(c1ccc(N)cc1)NCC2` (stereo not drawn) [Compound 4a, 1-(4′-Aminophenyl)-6,7-dimethoxy-1,2,3,4-tetrahydroisoquinoline], for which, in data set [1] (setting [4]), the “Onset of Anesthesia” value is 2.0 ± 0.7 min and the “Total Duration of Anesthesia” value was determined as 25.0 ± 4.0 min. Further, the “Duration of Complete Anesthesia” value in data set [1] (rabbit corneal model, 1% aqueous solution, percentage of the anesthetic activity of lidocaine (=100%)) is “+40%”. Further, the “Local irritant effects on rabbit eyes” value in data set [1] (rabbit eyes, concentrations studied) was “eye irritation and redness; also recorded: reversible irritation and redness of the eyes”. In data set [2], this compound returned an LD50 of 1050 mg/kg. In data set [3], the “Decrease of acute toxicity compared with 3a” value is on record as 3.75 fold.
